Assay results reported in ChEMBL document CHEMBL5291721, “A preclinical secondary pharmacology resource illuminates target-adverse drug reaction associations of marketed drugs” (Nat Commun, 2023).

What was measured:
[1] = biological target: Sodium-dependent noradrenaline transporter (Homo sapiens, UniProt P23975)
[2] = biological target: T1, Progesterone receptor (Homo sapiens, UniProt P06401)
T1 sequence (P06401 whole entry): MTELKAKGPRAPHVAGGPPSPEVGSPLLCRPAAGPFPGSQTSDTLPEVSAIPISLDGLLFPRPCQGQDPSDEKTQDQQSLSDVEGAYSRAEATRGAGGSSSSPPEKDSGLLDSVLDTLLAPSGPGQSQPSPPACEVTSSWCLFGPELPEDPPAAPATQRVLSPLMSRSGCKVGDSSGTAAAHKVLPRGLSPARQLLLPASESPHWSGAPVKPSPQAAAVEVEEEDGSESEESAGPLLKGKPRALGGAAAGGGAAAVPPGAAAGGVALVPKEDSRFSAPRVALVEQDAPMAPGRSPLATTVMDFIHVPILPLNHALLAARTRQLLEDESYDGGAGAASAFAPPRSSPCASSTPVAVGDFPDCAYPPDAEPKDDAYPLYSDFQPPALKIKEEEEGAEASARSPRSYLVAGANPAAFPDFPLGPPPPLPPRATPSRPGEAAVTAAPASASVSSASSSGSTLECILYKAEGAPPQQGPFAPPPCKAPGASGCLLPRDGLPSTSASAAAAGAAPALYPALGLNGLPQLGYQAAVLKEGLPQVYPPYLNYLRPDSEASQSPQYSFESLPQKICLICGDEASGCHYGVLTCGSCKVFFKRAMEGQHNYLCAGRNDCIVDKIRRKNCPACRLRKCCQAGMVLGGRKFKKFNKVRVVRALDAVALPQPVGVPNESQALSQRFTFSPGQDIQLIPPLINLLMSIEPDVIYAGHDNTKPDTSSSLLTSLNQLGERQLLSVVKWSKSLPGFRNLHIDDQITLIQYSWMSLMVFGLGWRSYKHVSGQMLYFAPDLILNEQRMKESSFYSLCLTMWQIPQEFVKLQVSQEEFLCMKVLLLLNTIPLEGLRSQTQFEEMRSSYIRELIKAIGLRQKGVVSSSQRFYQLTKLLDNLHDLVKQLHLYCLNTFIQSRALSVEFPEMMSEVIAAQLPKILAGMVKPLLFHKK

[3] = biological target: Voltage-dependent L-type calcium channel subunit alpha-1C (Rattus norvegicus, UniProt P22002); assay type: functional
Chain of Voltage-dependent L-type calcium channel subunit alpha-1C (P22002 whole entry): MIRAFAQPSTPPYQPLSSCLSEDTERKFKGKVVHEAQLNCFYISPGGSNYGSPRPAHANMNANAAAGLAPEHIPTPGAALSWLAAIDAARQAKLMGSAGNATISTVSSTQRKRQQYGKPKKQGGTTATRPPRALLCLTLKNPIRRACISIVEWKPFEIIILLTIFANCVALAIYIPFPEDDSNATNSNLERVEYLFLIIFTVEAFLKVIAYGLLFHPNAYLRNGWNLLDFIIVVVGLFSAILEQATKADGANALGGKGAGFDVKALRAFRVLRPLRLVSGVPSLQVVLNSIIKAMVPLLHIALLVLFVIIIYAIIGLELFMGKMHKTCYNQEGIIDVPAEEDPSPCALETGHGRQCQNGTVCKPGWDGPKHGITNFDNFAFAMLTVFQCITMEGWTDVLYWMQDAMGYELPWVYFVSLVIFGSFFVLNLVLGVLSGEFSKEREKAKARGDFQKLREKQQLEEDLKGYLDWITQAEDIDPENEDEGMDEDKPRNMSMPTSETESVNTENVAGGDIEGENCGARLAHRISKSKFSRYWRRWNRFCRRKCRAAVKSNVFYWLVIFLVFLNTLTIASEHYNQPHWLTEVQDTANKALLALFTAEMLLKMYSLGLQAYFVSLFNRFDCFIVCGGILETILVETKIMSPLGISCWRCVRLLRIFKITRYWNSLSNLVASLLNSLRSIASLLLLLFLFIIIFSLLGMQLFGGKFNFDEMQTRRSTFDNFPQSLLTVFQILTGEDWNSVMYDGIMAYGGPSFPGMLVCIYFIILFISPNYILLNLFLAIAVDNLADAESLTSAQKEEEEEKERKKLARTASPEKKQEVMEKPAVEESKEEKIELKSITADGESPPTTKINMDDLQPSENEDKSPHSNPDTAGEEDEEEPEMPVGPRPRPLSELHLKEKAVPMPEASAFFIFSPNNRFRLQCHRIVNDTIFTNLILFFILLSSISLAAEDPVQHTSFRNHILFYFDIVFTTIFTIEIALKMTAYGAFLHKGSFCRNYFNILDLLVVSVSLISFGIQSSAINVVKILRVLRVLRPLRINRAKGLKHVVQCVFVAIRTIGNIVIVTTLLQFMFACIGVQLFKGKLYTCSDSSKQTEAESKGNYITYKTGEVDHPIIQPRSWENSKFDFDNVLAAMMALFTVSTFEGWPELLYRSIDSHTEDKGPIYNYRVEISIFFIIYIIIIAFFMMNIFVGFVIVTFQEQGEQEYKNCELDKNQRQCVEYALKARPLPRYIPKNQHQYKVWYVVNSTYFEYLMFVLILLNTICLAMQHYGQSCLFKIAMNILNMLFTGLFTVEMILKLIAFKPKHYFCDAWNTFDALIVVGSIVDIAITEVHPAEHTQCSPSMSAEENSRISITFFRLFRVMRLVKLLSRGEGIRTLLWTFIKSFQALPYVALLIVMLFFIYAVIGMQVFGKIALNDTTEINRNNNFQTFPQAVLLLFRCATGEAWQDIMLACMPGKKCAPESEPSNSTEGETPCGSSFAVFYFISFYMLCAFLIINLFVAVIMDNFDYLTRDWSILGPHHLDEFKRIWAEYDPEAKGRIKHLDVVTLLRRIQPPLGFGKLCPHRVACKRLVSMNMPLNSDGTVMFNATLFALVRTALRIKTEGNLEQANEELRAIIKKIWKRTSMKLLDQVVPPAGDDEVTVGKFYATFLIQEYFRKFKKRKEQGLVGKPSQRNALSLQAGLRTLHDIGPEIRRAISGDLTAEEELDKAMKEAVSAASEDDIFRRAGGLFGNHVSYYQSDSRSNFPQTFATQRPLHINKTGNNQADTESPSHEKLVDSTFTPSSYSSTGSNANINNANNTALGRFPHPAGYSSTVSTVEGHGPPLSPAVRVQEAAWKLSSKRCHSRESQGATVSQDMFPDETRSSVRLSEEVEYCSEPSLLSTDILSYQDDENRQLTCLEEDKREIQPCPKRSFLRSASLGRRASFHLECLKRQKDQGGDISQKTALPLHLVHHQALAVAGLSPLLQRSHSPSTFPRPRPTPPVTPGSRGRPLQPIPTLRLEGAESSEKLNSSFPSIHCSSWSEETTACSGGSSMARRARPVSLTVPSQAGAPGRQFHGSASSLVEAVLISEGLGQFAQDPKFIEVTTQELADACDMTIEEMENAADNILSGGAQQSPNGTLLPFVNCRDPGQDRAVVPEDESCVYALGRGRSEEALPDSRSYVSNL

[4] = biological target: T2, Alpha-1A adrenergic receptor (Homo sapiens, UniProt P35348); assay type: functional, cell-based
T2 sequence (P35348 whole entry): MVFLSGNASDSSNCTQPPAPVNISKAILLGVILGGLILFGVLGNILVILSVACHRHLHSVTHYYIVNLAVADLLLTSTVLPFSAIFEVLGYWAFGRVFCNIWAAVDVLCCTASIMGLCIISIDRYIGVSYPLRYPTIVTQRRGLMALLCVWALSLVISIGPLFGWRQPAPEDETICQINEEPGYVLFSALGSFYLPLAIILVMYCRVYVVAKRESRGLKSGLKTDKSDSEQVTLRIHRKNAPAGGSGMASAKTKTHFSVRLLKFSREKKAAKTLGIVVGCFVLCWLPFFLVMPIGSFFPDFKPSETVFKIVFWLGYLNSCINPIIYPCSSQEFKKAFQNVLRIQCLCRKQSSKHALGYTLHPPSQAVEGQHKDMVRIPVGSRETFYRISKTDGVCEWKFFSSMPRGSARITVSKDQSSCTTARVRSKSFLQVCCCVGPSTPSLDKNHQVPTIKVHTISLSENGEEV

[5] = biological target: T3, Endothelin-1 receptor (Homo sapiens, UniProt P25101)
T3 sequence (P25101 whole entry): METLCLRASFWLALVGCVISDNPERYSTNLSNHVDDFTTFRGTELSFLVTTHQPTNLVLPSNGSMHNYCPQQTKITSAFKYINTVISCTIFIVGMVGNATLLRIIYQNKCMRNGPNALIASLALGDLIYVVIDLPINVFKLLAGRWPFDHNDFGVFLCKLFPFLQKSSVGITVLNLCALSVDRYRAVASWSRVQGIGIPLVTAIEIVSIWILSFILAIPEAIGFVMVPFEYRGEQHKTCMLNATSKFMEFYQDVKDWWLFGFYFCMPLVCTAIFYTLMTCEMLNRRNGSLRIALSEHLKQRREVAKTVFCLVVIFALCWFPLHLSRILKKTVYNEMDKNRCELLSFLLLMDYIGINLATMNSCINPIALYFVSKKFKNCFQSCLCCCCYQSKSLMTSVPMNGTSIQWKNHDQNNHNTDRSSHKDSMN

[6] = biological target: T4, Estrogen receptor (Homo sapiens, UniProt P03372)
T4 sequence (P03372 whole entry): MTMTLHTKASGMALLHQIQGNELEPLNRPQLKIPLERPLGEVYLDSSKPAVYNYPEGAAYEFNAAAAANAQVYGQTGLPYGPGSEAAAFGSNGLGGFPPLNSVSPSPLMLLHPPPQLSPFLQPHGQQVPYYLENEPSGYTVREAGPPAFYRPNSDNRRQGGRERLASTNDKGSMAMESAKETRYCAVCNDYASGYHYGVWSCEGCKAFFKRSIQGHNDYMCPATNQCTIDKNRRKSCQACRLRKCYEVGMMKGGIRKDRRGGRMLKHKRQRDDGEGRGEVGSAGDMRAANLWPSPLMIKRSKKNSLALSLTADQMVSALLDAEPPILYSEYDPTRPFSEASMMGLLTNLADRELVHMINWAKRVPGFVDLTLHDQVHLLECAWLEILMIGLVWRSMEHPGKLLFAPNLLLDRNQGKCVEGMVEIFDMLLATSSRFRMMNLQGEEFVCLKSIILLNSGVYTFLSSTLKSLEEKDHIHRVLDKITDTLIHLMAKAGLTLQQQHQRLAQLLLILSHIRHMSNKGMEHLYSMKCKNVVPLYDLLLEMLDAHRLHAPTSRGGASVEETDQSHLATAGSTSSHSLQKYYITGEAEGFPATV
Also: assay procedure not described here.

Chain of Sodium-dependent noradrenaline transporter (P23975 whole entry): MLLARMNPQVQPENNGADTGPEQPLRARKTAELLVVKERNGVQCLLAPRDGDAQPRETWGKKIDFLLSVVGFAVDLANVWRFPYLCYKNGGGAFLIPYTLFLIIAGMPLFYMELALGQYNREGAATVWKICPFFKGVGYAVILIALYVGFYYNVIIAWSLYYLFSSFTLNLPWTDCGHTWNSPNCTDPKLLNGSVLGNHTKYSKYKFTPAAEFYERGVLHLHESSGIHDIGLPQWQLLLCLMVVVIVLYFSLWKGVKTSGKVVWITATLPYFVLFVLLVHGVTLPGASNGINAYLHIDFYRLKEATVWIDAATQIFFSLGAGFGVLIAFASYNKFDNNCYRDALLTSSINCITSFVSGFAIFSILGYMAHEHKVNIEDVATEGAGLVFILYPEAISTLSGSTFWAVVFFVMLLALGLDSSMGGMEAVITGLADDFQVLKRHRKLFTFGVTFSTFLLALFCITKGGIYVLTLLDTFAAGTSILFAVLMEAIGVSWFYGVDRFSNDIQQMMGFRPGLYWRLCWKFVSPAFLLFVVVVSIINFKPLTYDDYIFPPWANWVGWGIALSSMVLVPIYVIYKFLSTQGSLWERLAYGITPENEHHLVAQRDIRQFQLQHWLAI

| Compound | AC50 [1] | AC50 [2] | AC50 [3] | AC50 [4] | AC50 [5] | AC50 [6] |
| --- | --- | --- | --- | --- | --- | --- |
| Cc1cc2c(cc1CC(=O)c1sccc1S(=O)(=O)Nc1onc(C)c1Cl)OCO2 [SITAXENTAN] | > 30 µM | > 30 µM |  |  |  |  |
| Cc1cc(O)cc(C)c1Cl [CHLOROXYLENOL] | > 30 µM | > 30 µM |  |  |  |  |
| CN(C)CCCN1c2ccccc2CCc2ccc(Cl)cc21 [CLOMIPRAMINE] |  |  | > 10 µM | > 30 µM |  |  |
| NS(=O)(=O)c1cc2c(cc1Cl)NCNS2(=O)=O [HYDROCHLOROTHIAZIDE] |  |  | > 10 µM |  | > 30 µM | > 30 µM |
| CC(=O)OCC(=O)[C@@]1(O)CC[C@H]2[C@@H]3CCC4=CC(=O)CC[C@]4(C)[C@H]3C(=O)C[C@@]21C [CORTISONE ACETATE] |  |  |  | > 30 µM |  |  |
| C#C[C@]1(O)CC[C@H]2[C@@H]3CCC4=CC(=O)CC[C@@H]4[C@H]3CC[C@@]21CC [LEVONORGESTREL] | > 30 µM |  |  |  |  |  |
| C(=N\NC1=NCCN1)/c1c2ccccc2c(/C=N/NC2=NCCN2)c2ccccc12 [BISANTRENE] | 7.13 µM | > 30 µM |  |  |  |  |
| NC1=NC(=O)C(c2ccccc2)O1 (centres undefined) [PEMOLINE] |  |  | > 10 µM |  |  |  |
| O=C1c2c(O)c(=O)ccn2N([C@@H]2c3ccccc3SCc3c2ccc(F)c3F)[C@@H]2COCCN12 [BALOXAVIR] | > 30 µM | > 30 µM |  |  |  |  |
| CCN(CC)CCNC(=O)c1cc(Cl)c(N)cc1OC [METOCLOPRAMIDE] |  |  | > 10 µM | > 30 µM | > 30 µM | > 30 µM |
| O=C(O)c1cc(-c2ccc(F)cc2F)ccc1O [DIFLUNISAL] |  |  | > 10 µM |  |  | > 10 µM |
| C[N+]1(C)[C@@H]2C[C@@H](OC(=O)[C@H](CO)c3ccccc3)C[C@H]1[C@@H]1O[C@@H]12 [METHSCOPOLAMINE] | > 30 µM | > 30 µM |  |  |  |  |
| CC1(C)O[C@@H]2C[C@H]3[C@@H]4C[C@H](F)C5=CC(=O)CC[C@]5(C)[C@H]4[C@@H](O)C[C@]3(C)[C@]2(C(=O)CO)O1 [FLURANDRENOLIDE] | > 30 µM | 0.0666 µM |  |  |  |  |
| O=C(COc1ccc(Cl)cc1)N1CCN(Cc2ccc3c(c2)OCO3)CC1 [FIPEXIDE] | 20.4 µM | > 30 µM |  |  |  |  |
| O=C1c2ccccc2C(=O)C1C(=O)C(c1ccccc1)c1ccccc1 [DIPHENADIONE] | > 30 µM | > 30 µM |  |  |  |  |
| C[N+](C)(C)CCCCCCCCCC[N+](C)(C)C [DECAMETHONIUM] | > 30 µM |  |  |  |  |  |
| CC(=O)Oc1c(C)cc(OCC(O)CNC(C)C)c(C)c1C (centres undefined) [METIPRANOLOL] | > 30 µM | > 30 µM |  |  |  |  |
| CC(N/C(=N\C#N)Nc1ccncc1)C(C)(C)C (centres undefined) [PINACIDIL ANHYDROUS] | > 30 µM | > 30 µM |  |  |  |  |
| O=C1CC[C@@]2(O)[C@H]3Cc4ccc(O)c5c4[C@@]2(CCN3CC2CC2)[C@H]1O5 [NALTREXONE] | > 30 µM | > 30 µM |  |  |  |  |
| CCC(=O)c1c(O)cc(O)cc1O [FLOPROPIONE] | > 30 µM | > 30 µM |  |  |  |  |
| O=C1[C@H](CC[C@H](O)c2ccc(F)cc2)[C@@H](c2ccc(O)cc2)N1c1ccc(F)cc1 [EZETIMIBE] | 24 µM | 24.6 µM |  |  |  |  |

| Compound | AC50 [1] | AC50 [2] | AC50 [3] | AC50 [4] | AC50 [5] | AC50 [6] |
| --- | --- | --- | --- | --- | --- | --- |
| CCC(=O)O[C@H]1[C@H](O[C@@H]2[C@@H](C)[C@H](O[C@H]3C[C@@](C)(OC)[C@@H](O)[C@H](C)O3)[C@@H](C)C(=O)O[C@H](CC)[C@@](C)(O)[C@H](O)[C@@H](C)C(=O)[C@H](C)C[C@@]2(C)O)O[C@H](C)C[C@@H]1N(C)C [ERYTHROMYCIN PROPIONATE] | 29.9 µM | 10.4 µM |  |  |  |  |
| CC(C)(C(=O)c1cccnc1)c1cccnc1 [METYRAPONE] |  |  | > 10 µM |  |  | > 10 µM |
| CC(C)NNC(=O)c1ccncc1 [IPRONIAZID] |  |  |  | > 30 µM | > 30 µM |  |
| CC[C@H](C)C(=O)O[C@H]1C[C@H](O)C=C2C=C[C@H](C)[C@H](CC[C@@H](O)C[C@@H](O)CC(=O)O)[C@H]21 [PRAVASTATIN] |  |  | > 10 µM | > 30 µM | > 30 µM |  |
| CCOC(=O)[C@H](CCc1ccccc1)N[C@@H](C)C(=O)N1CCC[C@H]1C(=O)O |  |  | > 10 µM | > 30 µM | > 30 µM |  |
| CCOC(=O)c1ccc(O)cc1 [ETHYLPARABEN] | > 30 µM | > 30 µM |  |  |  |  |
| Cc1c(-c2ccccc2)oc2c(C(=O)OCCN3CCCCC3)cccc2c1=O [FLAVOXATE] | 11.3 µM | > 30 µM |  |  |  |  |
| CCC[C@@H]1C[C@@H](C(=O)N[C@@H]([C@H]2O[C@H](SC)[C@H](O)[C@@H](O)[C@H]2O)[C@H](C)Cl)N(C)C1 [CLINDAMYCIN] |  |  | > 10 µM | > 30 µM | > 30 µM | > 30 µM |
| COC(=O)C1=C(C)NC(C)=C(C(=O)OCC(C)C)C1c1ccccc1[N+](=O)[O-] (centres undefined) [NISOLDIPINE] |  |  | 4.62 µM | > 30 µM |  | > 30 µM |
| NC[C@H]1O[C@H](O[C@H]2[C@H](O)[C@@H](O[C@H]3O[C@H](CO)[C@@H](O)[C@H](N)[C@H]3O)[C@H](N)C[C@@H]2N)[C@H](O)[C@@H](O)[C@@H]1O [KANAMYCIN] |  |  | > 10 µM | > 30 µM |  | > 10 µM |
| C[C@H]1C[C@@H]2[C@H]([C@@H](O)C[C@@]3(C)[C@H]2CC[C@]3(O)C(=O)CO)[C@@]2(C)C=CC(=O)C=C12 [METHYLPREDNISOLONE] |  |  | > 10 µM |  |  |  |
| NC(N)=Nc1nc(CSCCC(N)=NS(N)(=O)=O)cs1 [FAMOTIDINE] |  |  | > 10 µM | > 30 µM | > 30 µM | > 30 µM |
| Sc1ncnc2nc[nH]c12 [MERCAPTOPURINE ANHYDROUS] | > 30 µM | > 30 µM |  |  |  |  |
| Cc1ccc(O)c2ncccc12 [TILIQUINOL] | 6.22 µM | > 30 µM |  |  |  |  |
| CC(C)OC(=O)[C@H](C)N[P@](=O)(OC[C@H]1O[C@@H](n2ccc(=O)[nH]c2=O)[C@](C)(F)[C@@H]1O)Oc1ccccc1 [SOFOSBUVIR] | > 30 µM | > 30 µM |  |  |  |  |
| CC(=O)OC[C@H]1O[C@@H](n2ccc(=O)[nH]c2=O)[C@H](OC(C)=O)[C@@H]1OC(C)=O [URIDINE TRIACETATE] | > 30 µM | > 30 µM |  |  |  |  |
| Cc1cccc(C)c1OCC(C)N (centres undefined) [MEXILETINE] |  |  |  | > 30 µM | > 30 µM | > 30 µM |
| CN1CCCC(CN2c3ccccc3Sc3ccccc32)C1 (centres undefined) [MEPAZINE] | 2.38 µM | > 30 µM |  |  |  |  |
| CN(C)C(=O)Oc1ccc[n+](C)c1 [PYRIDOSTIGMINE] | > 30 µM | > 30 µM |  |  |  |  |
| NC[C@H]1CC[C@H](C(=O)O)CC1 [TRANEXAMIC ACID] |  |  | > 10 µM |  |  | > 10 µM |
